Data reported in US10750743B2, “Pyridazinone herbicides” (E.I. DU PONT DE NEMOURS AND COMPANY, priority 2015, dated 2020).

Key:
Type in all cases: in vivo
Foxtail, Green [1] = experiment: Test A preemergence, directed soil spray, visual injury rating; conditions: 0 is no effect, 100 is complete control
[2] = system: barnyardgrass (Echinochloa crus-galli); experiment: as above; conditions: 0 is no effect, 100 is complete control
Outline: (§1)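 Seeds sown in a loam soil–sand blend received a directed preemergence soil spray of test chemical in a non-phytotoxic solvent mixture with surfactant. Postemergence plants were sprayed at 2 to 10 cm, one- to two-leaf stage. After approximately 10 d in greenhouse, injury was visually rated 0 (no effect) to 100 (complete control) against untreated controls.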

kochia (Kochia scoparia) [3] = experiment: as above; conditions: 0 is no effect, 100 is complete control
Outline: as §1

[4] = system: pigweed (Amaranthus retroflexus); experiment: as above; conditions: 0 is no effect, 100 is complete control
Outline: as §1

[5] = system: ragweed (common ragweed, Ambrosia elatior); experiment: as above; conditions: 0 is no effect, 100 is complete control
Outline: as §1

[6] = system: ryegrass, It. (Italian ryegrass, Lolium multiflorum); experiment: as above; conditions: 0 is no effect, 100 is complete control
Outline: as §1

[7] = system: barnyardgrass (Echinochloa crus-galli); experiment: Test B flooded paddy test, visual rating; conditions: Flood, 250 g ai/ha, applied to paddy water, rated after 13 to 15 d
Outline: (§2)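 Plants at the 2-leaf stage were flooded to 3 cm above soil, and test compounds were applied directly into the paddy water, which was held at that depth throughout. After 13 to 15 d in a greenhouse, injury was rated visually against untreated controls on a 0–100 scale (0 no effect, 100 complete control).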

[8] = system: ducksalad (Heteranthera limosa); experiment: Test B flooded paddy test, visual rating; conditions: Flood, 250 g ai/ha, applied to paddy water, rated after 13 to 15 d
Outline: as §2

rice (Oryza sativa) = experiment: Test B flooded paddy test, visual rating; conditions: Flood, 250 g ai/ha, applied to paddy water, rated after 13 to 15 d
Outline: as §2

[9] = system: sedge, umbrella (small-flower umbrella sedge, Cyperus difformis); experiment: Test B flooded paddy test, visual rating; conditions: Flood, 250 g ai/ha, applied to paddy water, rated after 13 to 15 d
Outline: as §2

Foxtail, Green [10] = experiment: Test A postemergence application, visual injury rating; conditions: 0 to 100 scale, 0 no effect, 100 complete control
[11] = system: barnyardgrass (Echinochloa crus-galli); experiment: as above; conditions: 0 to 100 scale, 0 no effect, 100 complete control
Outline: as §1

[12] = system: blackgrass (Alopecurus myosuroides); experiment: as above; conditions: 0 to 100 scale, 0 no effect, 100 complete control
Outline: as §1

corn (Zea mays) = experiment: as above; conditions: 0 to 100 scale, 0 no effect, 100 complete control
Outline: as §1

[13] = system: galium (catchweed bedstraw, Galium aparine); experiment: as above; conditions: 0 to 100 scale, 0 no effect, 100 complete control
Outline: as §1

kochia (Kochia scoparia) [14] = experiment: as above; conditions: 0 to 100 scale, 0 no effect, 100 complete control
Outline: as §1

[15] = system: pigweed (Amaranthus retroflexus); experiment: as above; conditions: 0 to 100 scale, 0 no effect, 100 complete control
Outline: as §1

[16] = system: ragweed (common ragweed, Ambrosia elatior); experiment: as above; conditions: 0 to 100 scale, 0 no effect, 100 complete control
Outline: as §1

[17] = system: ryegrass, It. (Italian ryegrass, Lolium multiflorum); experiment: as above; conditions: 0 to 100 scale, 0 no effect, 100 complete control
Outline: as §1

[18] = system: wheat (Triticum aestivum); experiment: as above; conditions: 0 to 100 scale, 0 no effect, 100 complete control
Outline: as §1

## Cn1ncc(O)c(-c2cccc3cnccc23)c1=O [Compound 34]
Foxtail, Green [1]; 31 g ai/ha
  Plant response rating (0 to 100 scale), Foxtail, Green: 0
Foxtail, Green [1]; 125 g ai/ha
  Plant response rating (0 to 100 scale), Foxtail, Green: 0
[2]; 31 g ai/ha
  Plant response rating (0 to 100 scale), Barnyardgrass: 0
[2]; 125 g ai/ha
  Plant response rating (0 to 100 scale), Barnyardgrass: 0
Kochia (Kochia scoparia) [3]; 31 g ai/ha
  Plant response rating (0 to 100 scale), Kochia: 0
Kochia (Kochia scoparia) [3]; 125 g ai/ha
  Plant response rating (0 to 100 scale), Kochia: 0
[4]; 31 g ai/ha
  Plant response rating (0 to 100 scale), Pigweed: 0
[4]; 125 g ai/ha
  Plant response rating (0 to 100 scale), Pigweed: 0
[5]; 31 g ai/ha
  Plant response rating (0 to 100 scale), Ragweed: 0
[5]; 125 g ai/ha
  Plant response rating (0 to 100 scale), Ragweed: 0
[6]; 31 g ai/ha
  Plant response rating (0 to 100 scale), Ryegrass, It.: 0
[6]; 125 g ai/ha
  Plant response rating (0 to 100 scale), Ryegrass, It.: 0
[7]
  Barnyardgrass plant response rating (0 to 100 scale, 0 is no effect, 100 is complete control): 0
[8]
  Ducksalad plant response rating (0 to 100 scale, 0 is no effect, 100 is complete control): 0
Rice (Oryza sativa)
  Rice plant response rating (0 to 100 scale, 0 is no effect, 100 is complete control): 0
[9]
  Sedge, Umbrella plant response rating (0 to 100 scale, 0 is no effect, 100 is complete control): 0
Foxtail, Green [10]; 31 g ai/ha
  Foxtail, Green plant response rating: 0
Foxtail, Green [10]; 125 g ai/ha
  Foxtail, Green plant response rating: 0
[11]; 31 g ai/ha
  Barnyardgrass plant response rating: 0
[11]; 125 g ai/ha
  Barnyardgrass plant response rating: 0
[12]; 31 g ai/ha
  Blackgrass plant response rating: 0
[12]; 125 g ai/ha
  Blackgrass plant response rating: 0
Corn (Zea mays); 31 g ai/ha
  Corn plant response rating: 0
Corn (Zea mays); 125 g ai/ha
  Corn plant response rating: 0
[13]; 31 g ai/ha
  Galium plant response rating: 0
[13]; 125 g ai/ha
  Galium plant response rating: 0
Kochia (Kochia scoparia) [14]; 31 g ai/ha
  Kochia plant response rating: 0
Kochia (Kochia scoparia) [14]; 125 g ai/ha
  Kochia plant response rating: 0
[15]; 31 g ai/ha
  Pigweed plant response rating: 0
[15]; 125 g ai/ha
  Pigweed plant response rating: 0
[16]; 31 g ai/ha
  Ragweed plant response rating: 0
[16]; 125 g ai/ha
  Ragweed plant response rating: 0
[17]; 31 g ai/ha
  Ryegrass, It. plant response rating: 0
[17]; 125 g ai/ha
  Ryegrass, It. plant response rating: 0
[18]; 31 g ai/ha
  Wheat plant response rating: 0
[18]; 125 g ai/ha
  Wheat plant response rating: 0

## Cc1nn(C)c(=O)c(-c2ccc(Cl)c3ccsc23)c1OC(=O)c1ccccc1 [Compound 35]
Foxtail, Green [1]; 1000 g ai/ha
  Plant response rating (0 to 100 scale), Foxtail, Green: 0
[2]; 1000 g ai/ha
  Plant response rating (0 to 100 scale), Barnyardgrass: 20
Kochia (Kochia scoparia) [3]; 1000 g ai/ha
  Plant response rating (0 to 100 scale), Kochia: 0
[4]; 1000 g ai/ha
  Plant response rating (0 to 100 scale), Pigweed: 0
[5]; 1000 g ai/ha
  Plant response rating (0 to 100 scale), Ragweed: 10
[6]; 1000 g ai/ha
  Plant response rating (0 to 100 scale), Ryegrass, It.: 80
Foxtail, Green [10]; 1000 g ai/ha
  Foxtail, Green plant response rating: 0
[11]; 1000 g ai/ha
  Barnyardgrass plant response rating: 20
[12]; 1000 g ai/ha
  Blackgrass plant response rating: 30
Corn (Zea mays); 1000 g ai/ha
  Corn plant response rating: 0
[13]; 1000 g ai/ha
  Galium plant response rating: 100
Kochia (Kochia scoparia) [14]; 1000 g ai/ha
  Kochia plant response rating: 0
[15]; 1000 g ai/ha
  Pigweed plant response rating: 0
[16]; 1000 g ai/ha
  Ragweed plant response rating: 0
[17]; 1000 g ai/ha
  Ryegrass, It. plant response rating: 70
[18]; 1000 g ai/ha
  Wheat plant response rating: 0
